Where two headings read alike, the source gives them in different places.

Data on 13 compounds can be found in paper PMC4446618, “SAR of Sponge-Inspired Hemibastadin Congeners Inhibiting Blue Mussel PhenolOxidase” (Marine Drugs, 2015).

The test system of one data set is barnacle larvae. Further details: method as in PMID 17713818. Particulars: cited from earlier work.
The target in data set [1] is blue mussel phenoloxidase (PO). Put plainly: Blue mussel PO inhibition assay. It is filed as biochemical, Mytilus edulis. The conditions noted are these: for IC50: purified enzyme, 25 °C, 10 mM L-DOPA, 50 mM phosphate buffer pH 6.8, 2 h incubation, triplicate; for enzyme inhibitory activity towards blue mussel PO (in words): compared to DBHB (1). As for the experimental part: PO activity was measured spectrophotometrically as described earlier. The purified enzyme was incubated at 25 °C with 10 mM L-DOPA in 50 mM phosphate buffer of pH 6.8. PO activity was determined by monitoring the increase of absorbance at 475 nm. One unit of enzyme activity was defined as the amount of enzyme that catalyzes the formation of 1 μmol dopachrome per minute under the described experimental conditions. Hemibastadin congeners were added to the assay at concentrations of up to 50 μg/mL. In addition, the biocide TBT (10 μg/mL) was used as a positive standard. Aliquots of pure enzyme were incubated for 2 h with hemibastadin analogues, then the enzyme activity was recorded with L-DOPA or catechol (10 mM) as substrates. All assays were run in triplicate. The results are presented as the concentration of compounds that reduces enzyme velocity by 50% (IC50 values). IC50 values were calculated using MINITAB (Version 14).

The target of data set [2] is blue mussel phenoloxidase (PO). Also on record: method as in PMID 21547349. The conditions noted are these: cited from earlier work; for IC50: data derived from a previous investigation, read-out: IC50, inhibition of blue mussel phenoloxidase (PO).

One may read the IC50 as the concentration at which inhibition is half-maximal. As to `O=C(NCCc1cc(Br)c(O)c(Br)c1)/C(Cc1cc(Br)c(O)c(Br)c1)=N/O` [Compound 1, 5,5′-dibromohemibastadin-1], the “antifouling activity (in words)” value with barnacle larvae is listed as “strong antifouling activity”. In addition, it took 0.81 µM to reach half-maximal inhibition in data set [1] (IC50).

For the compound `O=C(NCCc1ccc(O)cc1)/C(Cc1ccc(O)cc1)=N/O` [Compound 2, Norbromohemibastadin-1], the IC50 in data set [2] was 2.41 µM.

Consider `NC(Cc1ccc(O)cc1)C(=O)NCCc1ccc(O)cc1` (stereo not shown) [Compound 3, Tyrosinyltyramine], for which, in data set [2], the “inhibition of blue mussel PO (in words)” value is “completely inactive” and the 50% inhibitory concentration (IC50) is more than 100 µM.

For the compound `O=C(NCCc1cc(I)c(O)c(I)c1)/C(Cc1cc(I)c(O)c(I)c1)=N/O` [Compound 4, Tetraiodo-norbromohemibastadin-1], half-maximal inhibition in data set [1] (IC50) required 1.14 µM.

As to `O=C(NCCc1cc(Cl)c(O)c(Cl)c1)/C(Cc1cc(Cl)c(O)c(Cl)c1)=N/O` [Compound 5, Tetrachloro-norbromohemibastadin-1], inhibition in data set [1] was half-maximal at 1.19 µM (IC50).

In data set [1], `CO/N=C(\Cc1cc(Br)c(OC)c(Br)c1)C(=O)NCCc1cc(Br)c(OC)c(Br)c1` [Compound 6, Tri-O-methyl-5,5′-dibromohemibastadin-1] displayed an IC50 of 18.9 ± 0.77 µM. Besides, in data set [1] (relative to DBHB (1)), the “reduction of the enzyme inhibitory activity compared to the parent compound 1” value was “more than twenty-fold”.

For the compound `O=C(NC1CCCCC1)/C(Cc1cc(Br)c(O)c(Br)c1)=N/O` [Compound 7, N-cyclohexyl-3-(3,5-dibromo-4-hydroxyphenyl)-2-(2-hydroxyimino)-propanamide], in data set [1], 11.7 ± 0.49 µM corresponded to half-maximal inhibition (IC50).

In turn, `CC(C)CNC(=O)/C(Cc1cc(Br)c(O)c(Br)c1)=N/O` [Compound 8, N-(2-methyl-propyl)-3-(3,5-dibromo-4-hydroxyphenyl)-2-(2-hydroxyimino)-propanamide] returned an IC50 in data set [1] of 17.2 ± 0.76 µM.

`CCCCCCNC(=O)/C(Cc1cc(Br)c(O)c(Br)c1)=N/O` [Compound 9, N-hexyl-3-(3,5-dibromo-4-hydroxyphenyl)-2-(2-hydroxyimino)-propanamide] returned a 50% inhibitory concentration (IC50) in data set [1] of 16.3 ± 0.83 µM.

Turning to `O=C(NCCc1ccccc1)/C(Cc1cc(Br)c(O)c(Br)c1)=N/O` [Compound 10, N-2-phenylethyl-3-(3,5-dibromo-4-hydroxyphenyl)-2-(2-hydroxyimino)-propanamide], in data set [1], the “enzyme inhibitory activity towards blue mussel PO (in words)” value was “strong reduction of inhibitory activity” and the midpoint of inhibition, the IC50, lay at 22.7 ± 0.88 µM.

Broadly, the melting point is the temperature of the solid-liquid transition. `O=C(NCCc1c[nH]cn1)/C(Cc1cc(Br)c(O)c(Br)c1)=N/O` [Compound 11, N-[2-(4-imidazolyl)-ethyl]-3-(3,5-dibromo-4-hydroxyphenyl)-2-(2-hydroxyimino)-propanamide] gave a melting point of 130 °C. Also, the IC50 in data set [1] turned out to be 33.2 ± 1.72 µM.

For the compound `O=C(NCCc1c[nH]c2ccccc12)/C(Cc1cc(Br)c(O)c(Br)c1)=N/O` [Compound 12, N-[2-(3-indolyl)-ethyl]-3-(3,5-dibromo-4-hydroxyphenyl)-2-(2-hydroxyimino)-propanamide], in data set [1], the “enzyme inhibitory activity towards blue mussel PO (in words)” value was “complete loss of activity” and the IC50 was more than 100 µM.

Regarding `CC(=O)C(C)=NO` [Compound 13, 2,3-butanedione monoxime, reference compound], the IC50 in data set [2] was 8.7 µM.
